Data from the supplement of paper PMC10307832.

Legend:
Test in all cases: relative viability (nuclei count vs DMSO), 5 days (fraction); higher = more cells survive
HARA = test system: HARA
Method in brief: (§1)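 Relative viability divides the nuclei count in treated wells by that in vehicle wells. Lung cancer cell lines were seeded in 1536-well plates, dosed by pin tool the next day, and fixed and stained after 5 days in one step with final 0.05% Triton X-100, 1% formaldehyde and 1 ug/ml Hoechst. Dosing was a single drug or a fixed anchor-drug dose plus five library-drug doses (not always all listed) in √10 steps, and values are medians of duplicate plates imaged at 4×.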

201T = test system: 201T
Method in brief: as §1

NCI-H661 = test system: NCI-H661
Method in brief: as §1

LCLC-103H = test system: LCLC-103H
Method in brief: as §1

SK-LU-1 = test system: SK-LU-1
Method in brief: as §1

ChaGo-K-1 = test system: ChaGo-K-1
Method in brief: as §1

H3255 = test system: H3255
Method in brief: as §1

COR-L 105 = test system: COR-L 105
Method in brief: as §1

NCI-H1975 = test system: NCI-H1975
Method in brief: as §1

NCI-H3122 = test system: NCI-H3122
Method in brief: as §1

HOP-62 = test system: HOP-62
Method in brief: as §1

Cc1cn(-c2cc(NC(=O)c3ccc(C)c(Nc4nccc(-c5cccnc5)n4)c3)cc(C(F)(F)F)c2)cn1 [Nilotinib] + C[C@@H](Oc1cc(-c2cnn(C3CCNCC3)c2)cnc1N)c1c(Cl)ccc(F)c1Cl [Crizotinib] (partner 1 µM)
relative viability (HARA; first compound 0.001 µM): 1.09
relative viability (HARA; first compound 0.003162 µM): 1.42
relative viability (HARA; first compound 0.01 µM): 1.61
relative viability (HARA; first compound 0.03162 µM): 0.886
relative viability (HARA; first compound 0.1 µM): 1.05
relative viability (201T; first compound 0.001 µM): 1.01
relative viability (201T; first compound 0.003162 µM): 1.07
relative viability (201T; first compound 0.01 µM): 0.91
relative viability (201T; first compound 0.1 µM): 1.07
relative viability (NCI-H661; first compound 0.001 µM): 0.879
relative viability (NCI-H661; first compound 0.003162 µM): 1.12
relative viability (NCI-H661; first compound 0.01 µM): 1.03
relative viability (NCI-H661; first compound 0.03162 µM): 0.945
relative viability (NCI-H661; first compound 0.1 µM): 0.93
relative viability (LCLC-103H; first compound 0.003162 µM): 1.07
relative viability (LCLC-103H; first compound 0.03162 µM): 0.945
relative viability (LCLC-103H; first compound 0.1 µM): 1.08
relative viability (SK-LU-1; first compound 0.001 µM): 0.893
relative viability (SK-LU-1; first compound 0.003162 µM): 0.888
relative viability (SK-LU-1; first compound 0.01 µM): 0.933
relative viability (SK-LU-1; first compound 0.03162 µM): 0.805
relative viability (SK-LU-1; first compound 0.1 µM): 0.693
relative viability (ChaGo-K-1; first compound 0.001 µM): 1.1
relative viability (ChaGo-K-1; first compound 0.003162 µM): 1.08
relative viability (ChaGo-K-1; first compound 0.01 µM): 1.27
relative viability (ChaGo-K-1; first compound 0.03162 µM): 0.674
relative viability (ChaGo-K-1; first compound 0.1 µM): 1.08
relative viability (H3255; first compound 0.001 µM): 0.773
relative viability (H3255; first compound 0.003162 µM): 0.99
relative viability (H3255; first compound 0.01 µM): 1.07
relative viability (H3255; first compound 0.03162 µM): 0.814
relative viability (H3255; first compound 0.1 µM): 1.11
relative viability (COR-L 105; first compound 0.001 µM): 0.821
relative viability (COR-L 105; first compound 0.01 µM): 0.796
relative viability (COR-L 105; first compound 0.03162 µM): 0.668
relative viability (COR-L 105; first compound 0.1 µM): 0.662
relative viability (NCI-H1975; first compound 0.001 µM): 0.811
relative viability (NCI-H1975; first compound 0.003162 µM): 1.11
relative viability (NCI-H1975; first compound 0.01 µM): 1.16
relative viability (NCI-H1975; first compound 0.03162 µM): 0.616
relative viability (NCI-H1975; first compound 0.1 µM): 0.907
relative viability (NCI-H3122; first compound 0.001 µM): 0.298
relative viability (NCI-H3122; first compound 0.003162 µM): 0.314
relative viability (NCI-H3122; first compound 0.01 µM): 0.33
relative viability (NCI-H3122; first compound 0.03162 µM): 0.3
relative viability (NCI-H3122; first compound 0.1 µM): 0.328
relative viability (HOP-62; first compound 0.001 µM): 0.738
relative viability (HOP-62; first compound 0.003162 µM): 1.22
relative viability (HOP-62; first compound 0.01 µM): 1.13
relative viability (HOP-62; first compound 0.03162 µM): 0.796
relative viability (HOP-62; first compound 0.1 µM): 0.738
